In patent US9730944B2, “Antiviral activity of novel bicyclic heterocycles” (priority 2010, dated 2017):
Values after ≈ are worked out from the molar mass of the structure shown. Read-outs that look alike come from different tables or passages of the source.

Key:
[1] = Cytostatic/cytotoxic effect in Hela Rh cells (rhinovirus methodology, MTS); conditions: human, CC50 (μg/ml), rhinovirus methodology of example 451
[2] = system: hRV-86; test: Rhinovirus type 86 antiviral assay in Hela Rh cells, MTS readout; assay type: cell-based, Human rhinovirus; conditions: Human rhinovirus sp., HRV86, HeLa Rh, methodology of example 451; read-out: EC50 (μg/ml) hRV-86
[3] = system: hRV-14; test: Rhinovirus type 14 antiviral assay in Hela Rh cells, MTS readout; assay type: cell-based, Human rhinovirus; conditions: Rhinovirus B, HRV14, HeLa Rh, methodology of example 451; read-out: EC50 (μg/ml) hRV-14
[4] = system: hRV-9; test: Rhinovirus type 9 antiviral assay in Hela Rh cells, MTS readout; assay type: cell-based, Human rhinovirus; conditions: Human rhinovirus sp., HRV9, HeLa Rh, methodology of example 451; read-out: EC50 (μg/ml) hRV-9
[5] = system: hRV-85; test: Rhinovirus type 85 antiviral assay in Hela Rh cells, MTS readout; assay type: cell-based, Human rhinovirus; conditions: Human rhinovirus sp., HRV85, HeLa Rh, methodology of example 451; read-out: EC50 (μg/ml) hRV-85
[6] = system: hRV-2; test: Rhinovirus type 2 antiviral assay in Hela Rh cells, MTS readout; assay type: cell-based, Human rhinovirus; conditions: Rhinovirus A, HRV2, HeLa Rh, methodology of example 451; read-out: EC50 (μg/ml) hRV-2
[7] = system: hRV-45; test: Rhinovirus type 45 antiviral assay in Hela Rh cells, MTS readout; assay type: cell-based, Human rhinovirus; conditions: Human rhinovirus sp., HRV45, HeLa Rh, methodology of example 451; read-out: EC50 (μg/ml) hRV-45
[8] = system: poliovirus (PV type 1); test: microbe, parasite or virus in culture; assay type: cell-based; conditions: Enterovirus C, read-out: PV-1 EC50
[9] = system: hRV-39; test: Rhinovirus type 39 antiviral assay in Hela Rh cells, MTS readout; assay type: cell-based, Human rhinovirus; conditions: Human rhinovirus sp., HRV39, HeLa Rh, methodology of example 451; read-out: EC50 (μg/ml) hRV-39
[10] = Cytotoxicity reported with the coxsackievirus (CVA9) assay; conditions: African green monkey
[11] = system: hRV-59; test: Rhinovirus type 59 antiviral assay in Hela Rh cells, MTS readout; assay type: cell-based; conditions: Human rhinovirus sp., HRV59, HeLa Rh; methodology of example 451; read-out: EC50 (μg/ml) hRV-59
[12] = system: coxsackie virus (CVA9); test: Coxsackievirus (CVA9) antiviral assay in BGM cells; assay type: cell-based; conditions: Enterovirus B
[13] = system: hRV-63; test: Rhinovirus type 63 antiviral assay in Hela Rh cells, MTS readout; assay type: cell-based, Human rhinovirus; conditions: Human rhinovirus sp., HRV63, HeLa Rh, methodology of example 451; read-out: EC50 (μg/ml) hRV-63
[14] = system: hRV-42; test: Rhinovirus type 42 antiviral assay in Hela Rh cells, MTS readout; assay type: cell-based, Human rhinovirus; conditions: Human rhinovirus sp., HRV42, HeLa Rh, methodology of example 451; read-out: EC50 (μg/ml) hRV-42
[15] = Cytotoxicity in RD cells (enterovirus methodology); conditions: human
[16] = system: HIV-1 strain IIIB; test: Inhibition of replication of HIV-1 (IIIB strain) in MT-4 cells, MTT assay; assay type: cell-based; conditions: Human immunodeficiency virus 1, IIIB, MT4, 120 h; MT-4 cells, MTT assay, five days after infection, 50% protection from cytopathic effect; read-out: EC50 (μM) HIV-1 (IIIB)
[17] = system: hRV-89; test: Rhinovirus type 89 antiviral assay in Hela Rh cells, MTS readout; assay type: cell-based, Human rhinovirus; conditions: Rhinovirus A, HRV89, HeLa Rh; methodology of example 451; read-out: EC50 (μg/ml) hRV-89
[18] = system: hRV-29; test: Rhinovirus type 29 antiviral assay in Hela Rh cells, MTS readout; assay type: cell-based; conditions: Human rhinovirus sp., HRV29, HeLa Rh, methodology of example 451; read-out: EC50 (μg/ml) hRV-29
[19] = system: hRV-72; test: Rhinovirus type 72 antiviral assay in Hela Rh cells, MTS readout; assay type: cell-based, Human rhinovirus; conditions: Human rhinovirus sp., HRV72, HeLa Rh, methodology of example 451; read-out: EC50 (μg/ml) hRV-72
[20] = system: hRV-41; test: Rhinovirus type 41 antiviral assay in Hela Rh cells, MTS readout; assay type: cell-based, Human rhinovirus; conditions: Human rhinovirus sp., HRV41, HeLa Rh, methodology of example 451; read-out: EC50 (μg/ml) hRV-41
[21] = in vitro; conditions: human
[22] = system: poliovirus (PV type 2); test: microbe, parasite or virus in culture; assay type: cell-based; conditions: Enterovirus C, read-out: PV-2 EC50
[23] = system: HIV-2 strain (ROD); test: Inhibition of replication of HIV-2 (ROD strain) in MT-4 cells, MTT assay; assay type: cell-based; conditions: Human immunodeficiency virus 2, MT4, 120 h; MT-4 cells, MTT assay, five days after infection, 50% protection from cytopathic effect; read-out: EC50 (μM) HIV-2 (ROD)
[24] = system: enterovirus (EV71); test: Enterovirus (EV71) antiviral assay in RD cells; assay type: cell-based
[25] = in vitro; conditions: African green monkey, PV CC50
[26] = in vitro; conditions: human, PV CC50
[27] = in vitro; conditions: African green monkey
[28] = system: hRV-70; test: Rhinovirus type 70 antiviral assay in Hela Rh cells, MTS readout; assay type: cell-based, Human rhinovirus; conditions: Human rhinovirus sp., HRV70, HeLa Rh, methodology of example 451; read-out: EC50 (μg/ml) hRV-70
[29] = system: poliovirus (PV type 3); test: microbe, parasite or virus in culture; assay type: cell-based; conditions: Enterovirus C, read-out: PV-3 EC50
[30] = system: Enteric Cytopathic Human Orphan virus (ECHO11); test: organism not typed; assay type: cell-based; conditions: BGM, read-out: EC50 (ECHO virus)
[31] = system: hRV-15; test: Rhinovirus type 15 antiviral assay in Hela Rh cells, MTS readout; assay type: cell-based, Human rhinovirus; conditions: Human rhinovirus sp., HRV15, HeLa Rh, methodology of example 451; read-out: EC50 (μg/ml) hRV-15

In the case of `Nc1nc(N2CCN(C(=O)COc3ccc(Cl)cc3)CC2)c2nc(-c3ccc(F)cc3)sc2n1` [Example 45, 1-(4-(5-amino-2-(4-fluorophenyl)thiazolo[5,4-d]pyrimidin-7-yl)piperazin-1-yl)-2-(4-chlorophenoxy)ethanone], the CC50 [1] is reported as 21.7 µg/mL (≈ 43.5 µM), the EC50 [2] is reported as 0.047 µg/mL (≈ 0.0942 µM) and the EC50 [3] is reported as 0.0701 µg/mL (≈ 0.14 µM). For the same compound, the EC50 [4] was 0.0082 µg/mL (≈ 0.0164 µM), the EC50 [5] was 0.0295 µg/mL (≈ 0.0591 µM) and the EC50 [6] was 0.0095 µg/mL (≈ 0.019 µM). For the same compound, the EC50 [7] was 0.198 µg/mL (≈ 0.397 µM), the EC50 ([8]; HeLa) was < 0.023 µg/mL and the EC50 ([8]; Vero) was < 0.023 µg/mL. It also gave an EC50 [9] of 0.012 µg/mL (≈ 0.024 µM), a CC50 [10] of 25.7 µg/mL (≈ 51.5 µM) and an EC50 [11] of 0.02 µg/mL (≈ 0.0401 µM). For the same compound, the EC50 [12] was 0.29 µg/mL (≈ 0.581 µM), the EC50 [13] was 0.018 µg/mL (≈ 0.0361 µM) and the EC50 [14] was 0.0142 µg/mL (≈ 0.0285 µM). It also gave a CC50 [15] of 27.8 µg/mL (≈ 55.7 µM), an EC50 [16] of 0.73 µM and an EC50 [17] of 0.021 µg/mL (≈ 0.0421 µM). It also gave an EC50 [18] of 0.011 µg/mL (≈ 0.022 µM), an EC50 [19] of 0.0736 µg/mL (≈ 0.148 µM) and an EC50 [20] of 0.0129 µg/mL (≈ 0.0259 µM). The CC50 [21] was 149 µM, the EC50 ([22]; HeLa) was < 0.023 µg/mL and the EC50 ([22]; Vero) was < 0.023 µg/mL. The EC50 [23] was 0.45 µM, the EC50 [24] was 0.0695 µg/mL (≈ 0.139 µM) and the CC50 [25] was > 150 µg/mL. For the same compound, the CC50 [26] was > 50 µg/mL, the CC50 [27] was 28.7 µg/mL (≈ 57.5 µM) and the EC50 [28] was 0.0718 µg/mL (≈ 0.144 µM). For the same compound, the EC50 ([29]; HeLa) was < 0.023 µg/mL, the EC50 ([29]; Vero) was < 0.023 µg/mL and the EC50 [30] was 0.076 µg/mL (≈ 0.152 µM). The EC50 [31] was 0.017 µg/mL (≈ 0.0341 µM).
